Experimental data published in patent publication US20070270421A1, “Novel pyridine Derivative and Pyrimidine Derivative (1)” (priority 2004, published 2007).

Molecular target: T1, HGFR (His6-HGFR cytoplasmic domain) (Homo sapiens, UniProt P08581)
T1 construct: made in house; host or cells: Spodoptera frugiperda Sf9 insect cells (baculovirus, pFastBac-HT)
Assay: Inhibitory activity against HGFR tyrosine kinase activity (HTRF)
Format: biochemical
Settings: biotin-poly(GT), ATP, 30° C. 10 min, read-out: IC50 (concentration necessary to inhibit HGFR kinase activity by 50%)
Text: The cytoplasmic domain of HGFR (Genbank Accession No. J02958) is a 1.3 kb DNA fragment beginning with Lys974 and including a stop codon, and described by Park et al. (Proc. Natl. Acad. Sci. U.S.A. 84(18), 6379-6383, 1987). The DNA fragment was isolated from the human placental cDNA library (purchased from Clontech) by PCR (TaKaRa Ex Taq™ Kit, purchased from TaKaRa) using two kinds of primers (SEQ ID NO: 1, 5′-[…]-3′ and SEQ ID NO: 2, 5′-[…]-3′, purchased from Invitrogen). The DNA fragment was cloned into a baculovirus transplace vector (pFastBac™-HT (purchased from GIBCO BRL)) to produce a recombinant construct. The construct was transfected into insect cells (Spodoptera frugiperda 9 (Sf9)) to produce a solution of HGFR transfected baculovirus (preparation of a recombinant baculovirus can be found in the standard text (Bac-to-Bac Baculovirus Expression System (GIBCO BRL)). The cloning of the other receptor tyrosine kinases and preparation of the recombinant baculovirus solutions were performed using a cytoplasmic fragment starting from Lys791 (VEGFR2, Genbank Accession No. L04947), a cytoplasmic fragment starting from Lys398 (FGFR1, Genbank Accession No. X52833) and a cytoplasmic fragment starting from Lys558 (PDGFRβ, Genbank Accession No. M21616) in stead of HGFR in the above method. EGFR was purchased from Sigma (Production No. E-2645).
To the suspension of Sf9 cells (3×10^8 cells) in SF-900II medium (purchased from Invitrogen) containing 2% FBS was added a solution of HGFR transfected baculovirus above (4 ml), followed by a shaking culture at 27° C. for 48 hrs. The cells infected with the HGFR transfected baculovirus were centrifuged at 1,000 rpm, 4° C. for 5 min to remove the supernatant. The precipitated infected cells were suspended in 80 ml of ice-cold PBS, and centrifuged at 1,000 rpm, 4° C. for 5 min to remove the supernatant. The precipitated infected cells were suspended in 40 ml of ice-cold Lysis Buffer (50 mM Tris-HCl (pH 8.5), 5 mM 2-mercaptoethanol, 100 mM KCl, 1 mM PMSF and 1% (v/v) NP-40). The suspension was centrifuged at 12,000 rpm, 4° C. for 30 min to provide a supernatant.
The supernatant was loaded onto an Ni-NTA agarose column (3 ml, purchased from Qiagen) equilibrated with 30 ml of Buffer A (20 mM Tris-HCl (pH 8.5), 5 mM 2-mercaptoethanol, 500 mM KCl, 20 mM imidazole and 10% (v/v) glycerol). The column was washed with 30 ml of Buffer A, 6 ml of Buffer B (20 mM Tris-HCl (pH 8.5), 5 mM 2-mercaptoethanol, 1 M KCl, and 10% (v/v) glycerol) and 6 ml of Buffer A in this order. Then, the column was eluted with 6 ml of Buffer C (20 mM Tris-HCl (pH 8.5), 5 mM 2-mercaptoethanol, 100 mM KCl, 100 mM imidazole, and 10% (v/v) glycerol) to provide a fraction. The fraction was entrapped in a dialysis membrane (purchased from Spectrum Laboratories), dialyzed at 4° C. overnight with 1 L of dialysis buffer (20 mM Tris-HCl (pH 7.5), 10% (v/v) glycerol, 1 mM dithiothreitol, 0.1 mM Na3VO4 and 0.1 mM EGTA), and stored at −80° C. until used. An aliquot of the dialyzed fraction was subjected to SDS electrophoresis, and then a recombinant protein (His6-HGFR, the HGFR cytoplasmic domain fused with six histidine at the N terminus) detected at a molecular weight of about 60 kDa when stained with Coomassie Brilliant Blue, was determined with regard to protein content using BSA (purchased from Sigma) as a standard. The VEGFR2 cytoplasmic domain, the FGFR1 cytoplasmic domain, and the PDGFRβ cytoplasmic domain were fused with six histidine at the N terminus by the similar method to produce respective recombinant proteins (His6-VEGFR2, His6-FGFR1, and His6-PDGFRβ). […]

T1 sequence (P08581 956-1390 limits assumed): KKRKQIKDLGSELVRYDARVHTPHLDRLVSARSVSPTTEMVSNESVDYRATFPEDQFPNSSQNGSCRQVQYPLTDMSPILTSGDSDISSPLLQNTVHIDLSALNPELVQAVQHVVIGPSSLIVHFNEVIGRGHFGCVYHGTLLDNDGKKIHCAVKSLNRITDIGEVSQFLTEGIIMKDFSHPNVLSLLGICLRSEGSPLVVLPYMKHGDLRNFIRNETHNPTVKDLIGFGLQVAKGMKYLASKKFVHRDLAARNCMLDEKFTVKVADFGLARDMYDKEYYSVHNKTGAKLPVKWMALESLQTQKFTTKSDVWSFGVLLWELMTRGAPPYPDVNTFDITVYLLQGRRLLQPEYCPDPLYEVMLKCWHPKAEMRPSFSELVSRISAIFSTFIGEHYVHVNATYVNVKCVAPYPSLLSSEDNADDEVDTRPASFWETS

Compound: CN(C)C[C@@H]1CCN(C(=O)Nc2cc(Oc3ccc(NC(=S)NC(=O)Cc4ccc(F)cc4)cc3F)ncn2)C1 [Example 179, 4-{[(3S)-3-(Dimethylaminomethyl)pyrrolidin-1-yl]carbonylamino}-6-(2-fluoro-4-{3-[2-(4-fluorophenyl)acetyl]thioureido}phenoxy)pyrimidine]
- IC50: 25 nM

Compound: CN(C)CCN1CCC(N(C)C(=O)Nc2cc(Oc3ccc(NC(=O)NC(=O)Cc4ccccc4)cc3F)ccn2)CC1 [Example 353, 1-[1-(2-Dimethylaminoethyl)piperidin-4-yl]-3-{4-[2-fluoro-4-(3-phenylacetylureido)phenoxy]pyridin-2-yl}-1-methylurea]
- IC50: 180 nM

Compound: CN1CCN(C2CCN(C(=O)Nc3cc(Oc4ccc(NC(=S)NC(=O)Cc5ccc(F)cc5)cc4)ccn3)CC2)CC1 [Example 191, 4-(4-{3-[2-(4-Fluorophenyl)acetyl]thioureido}phenoxy)-2-{[4-(1-methylpiperazin-4-yl)piperidin-1-yl]carbonylamino}pyridine]
- IC50: 57 nM

Compound: O=C(Cc1ccc(F)cc1)NC(=S)Nc1ccc(Oc2cc(NC(=O)N3CCCCC3)ncn2)c(F)c1 [Example 6, Piperidine-1-carboxylic acid [6-(2-fluoro-4-{3-[2-(4-fluorophenyl)acetyl]thioureido}phenoxy)pyrimidin-4-yl]amide]
- IC50: 60 nM

Compound: CN1CC(N2CCN(C(=O)Nc3cc(Oc4ccc(NC(=O)NC(=O)Cc5ccc(F)cc5)cc4F)ccn3)CC2)C1 [Example 383, 4-(1-Methylazetidin-3-yl)piperazine-1-carboxylic acid [4-(2-fluoro-4-{3-[2-(4-fluorophenyl)acetyl]ureido}phenoxy)pyridin-2-yl]amide]
- IC50: 94 nM

Compound: CN(C)[C@@H]1CCN(C(=O)Nc2cc(Oc3ccc(NC(=S)NC(=O)Cc4ccccc4)cc3F)ccn2)C1 [Example 245, 2-{[(3R)-3-Dimethylaminopyrrolidin-1-yl]carbonylamino}-4-{2-fluoro-4-[3-(2-phenylacetyl)thioureido]phenoxy}pyridine]
- IC50: 81 nM

Compound: O=C(Cc1ccccc1)NC(=S)Nc1ccc(Oc2ccnc(NC(=O)N3CCN(CCN4CCC4)CC3)c2)c(F)c1 [Example 397, 4-[2-(Azetidin-1-yl)ethyl]piperazine-1-carboxylic acid {4-[2-fluoro-4-(3-phenylacetylthioureido)phenoxy]pyridin-2-yl}amide]
- IC50: 55 nM

Compound: O=C(Cc1ccccc1)NC(=O)Nc1ccc(Oc2ccnc(NC(=O)N3CCN(CCN4CCC4)CC3)c2)c(F)c1 [Example 387, 4-[2-(Azetidin-1-yl)ethyl]piperazine-1-carboxylic acid {4-[2-fluoro-4-(3-phenylacetylureido)phenoxy]pyridin-2-yl}amide]
- IC50: 120 nM

Compound: O=C(Cc1ccccc1)NC(=S)Nc1ccc(Oc2ccnc(NC(=O)N3CC(N4CCCC4)C3)c2)c(F)c1 [Example 261, 3-(Pyrrolidin-1-yl)azetidine-1-carboxylic acid {4-[2-fluoro-4-(3-phenylacetylthioureido)phenoxy]pyridin-2-yl}amide]
- IC50: 100 nM

Compound: O=C(CC(=O)Nc1ccc(Oc2ccnc(NC(=O)N3CCC3)c2)cc1Cl)Nc1ccc(F)cc1 [Example 64, N-(2-Chloro-4-{2-[(azetidine-1-carbonyl)amino]pyridin-4-yloxy}phenyl)-N′-(4-fluorophenyl)malonamide]
- IC50: 59 nM

Compound: CN(C)CCN1CCC(N(C)C(=O)Nc2cc(Oc3ccc(NC(=S)NC(=O)Cc4ccc(F)cc4)cc3F)ncn2)CC1 [Example 184, 1-[1-(2-Dimethylaminoethyl)piperidin-4-yl]-3-[6-(2-fluoro-4-{3-[2-(4-fluorophenyl)acetyl]thioureido}phenoxy)pyrimidin-4-yl]-1-methylurea]
- IC50: 130 nM

Compound: CN1CCC(N2CCN(C(=O)Nc3cc(Oc4ccc(NC(=O)NC(=O)Cc5ccc(F)cc5)cc4F)ccn3)CC2)CC1 [Example 345, 4-(2-Fluoro-4-{3-[2-(4-fluorophenyl)acetyl]ureido}phenoxy)-2-{[4-(1-methylpiperidin-4-yl)piperazin-1-yl]carbonylamino}pyridine]
- IC50: 120 nM
